A short description of data set [1]: Metabolic stability in human liver microsomes assessed as compound remaining at 0.5 uM after 10 mins. The data set is classed as ADME, Microsome. The conditions noted are these: read-out: Stability.
Data set [2] in a line: Metabolic stability in rat liver microsomes assessed as compound remaining at 0.5 uM after 10 mins. The conditions noted are these: read-out: Stability. In kind it is ADME, Microsome.
Data set [3] can be described thus: Metabolic stability in mouse liver microsomes assessed as compound remaining at 0.5 uM after 10 mins. The data set is classed as ADME, Microsome. The conditions noted are these: read-out: Stability.
Data set [4] addresses Glycogen synthase kinase-3 beta (Homo sapiens, UniProt P49841). The experiment in a line: Inhibition of GSK-3beta (unknown origin) incubated for 1 hr by HTRF assay.
Data set [5] concerns Mus musculus. The experiment in a line: Anti-alzheimer activity in triple-transgenic mouse model at 30 mg/kg, po. The data set is classed as functional, organism-based.

Each structure is given as a SMILES string. The source made the active and inactive calls. The calls are words filed in the database; no cut-off is given here.

Sequence of Glycogen synthase kinase-3 beta (P49841 whole entry): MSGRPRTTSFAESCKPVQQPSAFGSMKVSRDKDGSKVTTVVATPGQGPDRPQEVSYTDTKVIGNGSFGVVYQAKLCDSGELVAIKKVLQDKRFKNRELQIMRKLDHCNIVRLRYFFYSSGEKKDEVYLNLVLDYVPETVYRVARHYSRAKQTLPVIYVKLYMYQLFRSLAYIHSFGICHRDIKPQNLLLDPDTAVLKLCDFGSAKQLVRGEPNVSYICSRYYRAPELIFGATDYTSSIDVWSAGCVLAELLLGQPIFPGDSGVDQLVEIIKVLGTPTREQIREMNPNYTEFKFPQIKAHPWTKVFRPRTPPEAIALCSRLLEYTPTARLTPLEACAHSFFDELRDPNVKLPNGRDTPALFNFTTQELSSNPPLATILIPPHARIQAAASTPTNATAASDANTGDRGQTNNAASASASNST

Consider `O=C(Nc1cnccc1C1CCCCC1)c1ccnc(NC(=O)C2CC2)c1`, for which the results for the remaining at 10 min, 0.5 µM in data set [1], in data set [2] and in data set [3] were 1%, 0.4% and 0.6%, respectively.
Consider `O=C(Nc1cnccc1N1CCC(F)(F)CC1)c1ccnc(NC(=O)[C@H]2C[C@H](Cl)C2)c1`, for which the 50% inhibitory concentration (IC50) in data set [4] came out at 0.37 nM. In other words, the sub-nanomolar range.
Turning to `CC(O)c1ccncc1NC(=O)c1ccnc(NC(=O)C2CC2)c1` (centres undefined), the remaining at 10 min, 0.5 µM was found to be 100% in data set [1], 100% in data set [2] and 77% in data set [3].
As for `O=C(Nc1cnccc1C1CCC1)c1ccnc(NC(=O)C2CC2)c1`, the remaining at 10 min, 0.5 µM in data set [1] turned out to be 72%; in data set [2], 43%; in data set [3], 1%.
Take `C[C@@H]1CN(c2ccncc2NC(=O)c2ccnc(NC(=O)C3CC3)c2)CCO1`: the remaining at 10 min, 0.5 µM in data set [1] came out at 56%; in data set [2], 36%; in data set [3], 3%.
`CC(C)(O)c1ccncc1NC(=O)c1ccnc(NC(=O)C2CC2)c1` had an IC50 in data set [4] of 0.1 nM. Moreover, the remaining at 10 min, 0.5 µM was 87% in data set [1], 100% in data set [2] and 27% in data set [3].
Take `CC1(C)CN(c2ccncc2NC(=O)c2ccnc(NC(=O)C3CC3)c2)CCO1`: the remaining at 10 min, 0.5 µM in data set [1] amounted to 35%; in data set [2] it was 16%; in data set [3] it was 0.4%.
For `O=C(Nc1cncc(-c2cc(F)ccc2F)c1)c1ccnc(NC(=O)C2CC2)c1`, the IC50 in data set [4] amounted to 3.7 nM.
Regarding `O=C(Nc1cnccc1C(=O)C(F)(F)F)c1ccnc(NC(=O)C2CC2)c1`, the remaining at 10 min, 0.5 µM in data set [1] was found to be 85%; in data set [2] it was 79%; in data set [3], 57%.
For the compound `O=C(Nc1cnccc1N1CCC(F)(F)CC1)c1ccnc(NC(=O)[C@H]2C[C@@H](Cl)C2)c1`, in data set [4], the IC50 worked out at 0.16 nM.
`O=C(Nc1cncc(-c2cccc(F)c2F)c1)c1ccnc(NC(=O)C2CCC(F)(F)C2)c1` (centres undefined) had an IC50 in data set [4] of 2.5 nM.
The same measure, in the same setting: the same measure for `O=C(Nc1cncc(-c2cccc(F)c2F)c1)c1ccnc(NC(=O)C2CC2)c1`: 2.6 nM.
Consider `O=C(Nc1cnccc1C(F)(F)F)c1ccnc(NC(=O)C2CC2)c1`, for which the figures for the remaining at 10 min, 0.5 µM in data set [1], in data set [2] and in data set [3] were 99%, 100% and 86%, respectively.
Turning to `O=C(Nc1cnccc1N1CCOCC1)c1ccnc(NC(=O)C2CC2)c1`, the remaining at 10 min, 0.5 µM in data set [1] stood at 84%; in data set [2] it was 63%; in data set [3], 2%.
With `O=C(Nc1cncc(-c2ccccc2F)c1)c1ccnc(NC(=O)C2CC2)c1`, the IC50 in data set [4] stood at 3 nM. Also, the figures for the remaining at 10 min, 0.5 µM in data set [1] and in data set [3] were 88% and 90%, respectively. In data set [5], the result was inactive.
Compound `O=C(Nc1cnccc1-c1ccccc1)c1ccnc(NC(=O)C2CCCC2)c1` registered a 50% inhibitory concentration (IC50) in data set [4] of 2.1 nM.
For `CC(F)C(=O)Nc1cc(C(=O)Nc2cnccc2-c2ccccc2)ccn1` (centres undefined), the IC50 in data set [4] was found to be 49 nM.
Consider `O=C(Nc1cnccc1C1CCCC1)c1ccnc(NC(=O)C2CC2)c1`, for which the values for the remaining at 10 min, 0.5 µM in data set [1], in data set [2] and in data set [3] were 7%, 1% and 0.5%, respectively.
In data set [4], `O=C(Nc1cncc(-c2ccccc2)c1)c1ccnc(NC(=O)C2CC2)c1` registered an IC50 of 9 nM.
`CC(C)c1ccncc1NC(=O)c1ccnc(NC(=O)C2CC2)c1`: the remaining at 10 min, 0.5 µM in data set [1] was found to be 87%; in data set [2], 78%; in data set [3], 14%.
Take `Cc1ccncc1NC(=O)c1ccnc(NC(=O)C2CC2)c1`: the remaining at 10 min, 0.5 µM in data set [1] was 93%; in data set [2], 97%; in data set [3], 82%.
Compound `O=C(Nc1cnccc1-c1ccc(Cl)cc1)c1ccnc(NC(=O)[C@H]2C[C@H](F)C2)c1` returned a 50% inhibitory concentration (IC50) in data set [4] of 1.7 nM.
For `C[C@@H]1CN(c2ccncc2NC(=O)c2ccnc(NC(=O)C3CC3)c2)C[C@H](C)O1`, the remaining at 10 min, 0.5 µM came out at 34% in data set [1], 26% in data set [2] and 4% in data set [3].
Regarding `O=C(Nc1cnccc1N1CCCCC1)c1ccnc(NC(=O)C2CC2)c1`, the values for the remaining at 10 min, 0.5 µM in data set [1], in data set [2] and in data set [3] were 17%, 6% and 1%, respectively.
With `CC1(C)COCCN1c1ccncc1NC(=O)c1ccnc(NC(=O)C2CC2)c1`, the remaining at 10 min, 0.5 µM in data set [1] worked out at 0.9%; in data set [2], 0.4%; in data set [3], 0.4%.
In the case of `C[C@H]1COCCN1c1ccncc1NC(=O)c1ccnc(NC(=O)C2CC2)c1`, the figures for the remaining at 10 min, 0.5 µM in data set [1], in data set [2] and in data set [3] were 9%, 3% and 0.2%, respectively.
Compound `CC(C)C(=O)Nc1cc(C(=O)Nc2cnccc2OCC(C)(F)F)ccn1` had an IC50 in data set [4] of 1.4 nM.
In the case of `C[C@H]1CN(c2ccncc2NC(=O)c2ccnc(NC(=O)C3CC3)c2)CCO1`, the remaining at 10 min, 0.5 µM in data set [1] is 66%; in data set [2], 40%; in data set [3] it was 1%.
Regarding `O=C(Nc1cnccc1-c1ccc(Cl)cc1)c1ccnc(NC(=O)[C@H]2C[C@@H](F)C2)c1`, the 50% inhibitory concentration (IC50) in data set [4] amounted to 6.9 nM.
`O=C(Nc1cnccc1C(O)C(F)(F)F)c1ccnc(NC(=O)C2CC2)c1` (centres undefined) returned an IC50 in data set [4] of 3.6 nM. In addition, the figures for the remaining at 10 min, 0.5 µM in data set [1], in data set [2] and in data set [3] were 86%, 82% and 35%, respectively.
As to `O=C(Nc1cnccc1-c1ccccc1)c1ccnc(NC(=O)C2CCC2)c1`, it took 5.7 nM to reach half-maximal inhibition in data set [4] (IC50). That is a single-digit nanomolar value.
Regarding `C[C@@H]1COCCN1c1ccncc1NC(=O)c1ccnc(NC(=O)C2CC2)c1`, the remaining at 10 min, 0.5 µM in data set [1] came to 4%; in data set [2], 1%; in data set [3], 0.2%.
On to `CC(C)C(=O)Nc1cc(C(=O)Nc2cnccc2OCCC(C)(C)O)ccn1`, for which the IC50 in data set [4] was found to be 2.8 nM.
In turn, `O=C(Nc1cnccc1N1CCC(F)(F)CC1)c1ccnc(NC(=O)C2CC2)c1` registered an IC50 in data set [4] of 0.19 nM. Besides, the values for the remaining at 10 min, 0.5 µM in data set [1], in data set [2] and in data set [3] were 25%, 6% and 0.2%, respectively.
On to `C=C(C)c1ccncc1NC(=O)c1ccnc(NC(=O)C2CC2)c1`, for which the remaining at 10 min, 0.5 µM turned out to be 88% in data set [1], 57% in data set [2] and 3% in data set [3].
`O=C(Nc1cnccc1-c1ccccc1)c1ccnc(NC(=O)C2CCOCC2)c1` registered an IC50 in data set [4] of 4.5 nM.

Values taken from ChEMBL document CHEMBL5236670 (Bioorg Med Chem Lett, 2023).
